Measurements from US5336485A, “Method for protecting animals against tacrine induced cytotoxic injury using sterol compounds” (priority 1993, dated 1994).
Where a name gives a salt, the structure may show the parent alone.

Key:
[1] = tested on: male Sprague-Dawley rats; experiment: CCl4 induced lethality in rats; assay type: in vivo, rat
Description: The in vivo effect of alpha-TS was tested by administering a lethal oral dose of carbon tetrachloride (CC14) to male Sprague-Dawley rats.
In the experiment described in Table 3, a single dose of alpha-TS dissolved in peanut oil:ethanol (3:2) was given to male Sprague-Dawley rats. The dose was given 24 hours prior to an orally administered CCl4 challenge dissolved in peanut oil. Two to nine animals were tested per treatment. The control group comprised rats pretreated with the vehicle only. Survival was monitored for at least 7 days after the toxic insult.
In vivo experiments were performed to determine if the time the ionizable tocopherol analog (alpha-TS) is administered affects the cytoprotective functions. Male Sprague-Dawley rats were given a 100 mg/kg intraperitoneal dose of a tocopherol or succinate analog and were given a lethal dose of CCl4 (2.9g/kg by oral gavage). Table 7 contrasts the times of administration of the tocopherol or succinate analog and the times of administration of the lethal dose of CCl4 with the survival of the rats in the study (3to 6 rats per protective treatment).
Several tocopherol and succinate analogs were tested for CCl4 induced lethality. A single dose of the tocopherol or succinate analog was administered twenty four hours prior to orally administering 2.9 g CCl4 /kg body weight. Three to six animals were analyzed per treatment. The rats were monitored for seven days. […]

[2] = tested on: rat hepatocytes; experiment: ATP content of rat hepatocyte suspensions; assay type: cell-based
Description: It is well known that the succinate molecule is utilized by the cell to produce ATP energy. In the tricarboxylic acid cycle, succinate is oxidized by succinate dehydrogenase to produce ATP. Oxidation occurs in the mitochondria and the mitochondria can utilize both succinate formed in the mitochondria or succinate transported to the mitochondria. Increasing ATP production may enhance cellular repair processes as well as normal metabolic processes. For example, the cell's ability to remove free intracellular Ca^2+ during a toxic insult is related to ATP production. Succinate administration stimulates gluconeogenesis to form glucose 6-phosphate which is used for producing energy anaerobically (ATP formation through glycolysis) and for producing reducing equivalents (NADPH formation through the hexose monophosphate shunt needed for lipid and nucleotide biosynthesis and other biosynthetic reductions and enzymatic reactions, e.g., glutathione reductase). An in vitro experiment was conducted to determine the relationship between the release of succinate from alpha-TS and the cellular ATP level. The experiment was performed by incubating a tocopherol analog in a rat hepatocyte suspension and measuring the ATP level at the beginning and end of the test.
(§1) Rat hepatocyte suspensions were subjected to 50 mM EMS and the percentage of cell death, the percentage of intracellular K^+ (a metabolic parameter as discussed above), the depletion of ATP and the effect on lipid peroxidation were monitored.

[3] = tested on: rat hepatocytes; experiment: EMS-induced cytotoxicity (LDH leakage/cell death) in rat hepatocyte suspensions; conditions: for Protection From Toxic Injury: EMS 3 h
Description: To determine if alpha-TS is a cytoprotective agent under physiological conditions, liver cells were incubated with Waymouth's medium containing approximately 1 mM extracellular Ca^2+ in the presence and absence of alpha-TS.
(§2) At each time-point, rapid separation of viable from non-viable hepatocytes and medium was accomplished by the dibutyl phthalate centrifugation method. Cell viability was monitored hourly by measuring LDH leakage with a Cobas Analyzer and intracellular [K^+ ]with a flame photometer. LDH was routinely measured in the medium while intracellular K^+ was measured in the 10% perchloric acid lysate of viable cells. Lipid peroxidation was determined by measuring TBA reactants in the medium. […] The samples were diluted with 0.3 ml 1% ascorbate in 0.1 M SDS, 0.4 ml ethanol, sonicated and extracted once with 0.8 ml hexane. Next, the hexane extract was evaporated to dryness with N2, the residue dissolved in 2.5% ascorbate in methanol (1 ml) and analyzed (100 μl) by high-performance liquid chromatograph (HPLC). […] The mobile phase, 95% MeOH was run isocratically and the HPLC retention times for delta and alpha-tocopherol were approximately eleven and sixteen minutes, respectively. […] Following the addition of 0.2 ml 4 M HC1, the neutralized KOH-MeOH extracted with 0.8 ml hexane. […] A standard curve for each tocopherol congener was run with every assay. […] Only viable cells were monitored in the laboratory procedures.
To determine the relative cytoprotective potency of various tocopherol derivatives, the effect of varying doses of a tocopherol analog on the protection against EMS-induced toxicity was examined in vitro on rat hepatocyte suspensions. Specifically, the following ionizable tocopherol congeners were tested: alpha-TS, alpha tocopheryl glutarate (alpha-TG), and alpha tocopheryl phosphate (alpha-TP). […] 0.1 nmoles is the lower detection limit.
In vitro experiments were conducted with a variety of different tocopherol and succinate analogs to determine which were protective against EMS induced toxicity. After five hours of incubation with 50 mM EMS and 25μM of a tocopherol or succinate analog, cytoprotection was determined by comparing the percentage of LDH leakage from control hepatocytes (vehicle only, assumed 100% protection) with the EMS only treated cells (assumed 0% protection).
An in vitro experiment with rat hepatocyte suspensions was performed to determine the effect of esterase inhibitors on alpha-TS.
as §1

[4] = tested on: rat hepatocytes; experiment: Cellular alpha-tocopherol and tocopherol ester content of rat hepatocytes; conditions: for Hepatocyte Concentration Alpha-T: EMS 3 h
Description: as §2
The hepatocytes were subsequently exposed to 50mM EMS for three hours.

[5] = tested on: cultured rat hepatocytes; experiment: EMS-induced toxicity and lipid peroxidation in primary cultures of rat hepatocytes; assay type: cell-based; conditions: for Cell Death / Lipid Peroxidation: 50 mM EMS, 6 hrs
Description: To confirm the cytoprotective properties of alpha-TP under physiological conditions in vitro tests using primary cultures of adult rat hepatocytes were conducted (another in vitro model system). Unlike the hepatocyte suspensions used for the in vitro modeling discussed above, cultured hepatocytes retain their in vivo cuboidal shape as a result of attachment to a collagen matrix, and their lifespan in vitro is 5 to 7 days, instead of 8-12 hours (as with suspensions).

[6] = tested on: liver; experiment: Partial liver ischemia/reperfusion-induced injury in rats; assay type: in vivo, rat; conditions: dihydrocholesterol sulfate vs dihydrocholesterol plus sodium sulfate
Description: 20 hours prior to global occlusion, one group of 10 rats was provided with 64 mg cholesterol/kg body weight and 100 mg tris succinate/kg body weight by i.p. injection, and another group of 10 rats was provided with 100 mg cholesteryl succinate/kg body weight. A control group of rats was only partially occluded for the one hour period. Ninety percent of the rats pretreated with cholesteryl succinate tris salt survived while only 10% of those pretreated with the combination of cholesterol and tris succinate survived. Table 22 of a partial ischemia study where male Sprague-Dawley rats were subjected to occlusion of the blood supply to the left lateral and median lobes of the liver for 60 minutes followed by reperfusion for 24 hours. During this time, the normal blood supply to the other lobes of the liver was maintained. […] Serum was obtained for AST and ALT measurements.
^a Partial liver ischemia was induced in male Sprague Dawley rats

[7] = tested on: liver; experiment: CCl4 induced hepatotoxicity in rats (serum AST/ALT); assay type: in vivo, rat
Description: In vivo experiments were performed to determine if alpha-TS administration protects the liver from chemical toxicity. The liver is the target organ for CCl4. CCl4 is a hepatotoxic agent that induces centrilobular liver necrosis through its metabolism to free radicals. Male Sprague-Dawley rats were given an intraperitoneal dose (100 mg/kg) of a tocopherol analog 24 hours prior to a CCl4 challenge (2.9g/kg given by oral garage). Forty eight hours after the challenge, the rats were sacrificed and the levels of aspartate aminotransferase (AST) and alanine aminotransferase (ALT) were measured.
As discussed above, SGOT levels provide a clinical assessment of hepatotoxicity (liver damage).
Succinate analogs were administered to male Sprague-Dawley rats 20 hours prior to a 1 g CCl4 /kg body weight oral challenge and the AST and ALT serum enzyme levels were measured 48 hours after the challenge.
Similar to the experiments were described above, the ionizable congeners were administered to Sprague-Dawley rats by i.p. injection of a 100 mg ionizable congener/kg body weight dose 20 hours prior to oral administration of a 1 g/kg dose of CCl4, and the AST and ALT levels were measured 48 hours after the CCl4 challenge.

[8] = Tissue distribution of alpha-tocopherol and alpha-tocopherol ester in rats; assay type: in vivo, rat; conditions: 100 mg/kg ip, 24 h
Description: 100 mg/kg body weight of a tocopherol analog was administered to Sprague-Dawley rats using a peanut oil:ethanol vehicle (3:2). Twenty four hours later the rats were sacrificed and the accumulation of the tocopherol analog in the liver was determined.
A similar in vivo experiment to that discussed in conjunction with Table 5 was performed to determine if other tissues accumulate alpha-TS. Male Sprague-Dawley rats were given a 100 mg/kg dose of alpha-TS using a variety of chemical forms and vehicles. A variety of techniques were used to administer the alpha-TS. Twenty four hours later the rats were sacrificed and the tissues were tested for alpha-TS accumulation.

[9] = tested on: rat hepatocytes; experiment: EMS-induced lipid peroxidation in rat hepatocyte suspensions; assay type: cell-based; conditions: Rattus norvegicus, Hepatocyte; 25 μM, 50 mM EMS
Description: as §2, §1

[10] = 100 mg/kg, single dose 24 h prior, CCl4 […]
[11] = 100 mg/kg ip (dihydrocholesterol 80 + sodium sulfate 30 mg/kg), 48 h after 1 g/kg CCl4 (Table 35)
[12] = 100 mg/kg ip, PEG 400 vehicle, 48 h after 1 g/kg CCl4 (Table 34)

Cc1c(C)c2c(c(C)c1OP(=O)(O)O)CCC(C)(CCCC(C)CCCC(C)CCCC(C)C)O2 (racemic) [alpha-TP, dl-alpha-tocopheryl phosphate]
Days Survived After CCl4 Treatment [1, 10]: 3 days | Rate of ATP Depletion ([2]; 50 μM): 2.0 ± 0.2 nmoles/10^6 cell/hr | Cellular ATP ([2]; 50 μM, 0 Hr): 19.4 ± 1.6 nmoles/10^6 cells | Cellular ATP ([2]; 50 μM, 6 Hr): 7.3 ± 0.2 nmoles/10^6 cells | minimal effective concentration ([3]; Rattus norvegicus, Hepatocyte, read-out: medium concentration with significant protection against EMS toxicity): ≥ 50 µM | cellular accumulation of alpha-TP ([4]; EMS): 2.68 nmols/10^6 cells | Cell Death ([5]; 25 μM): 16 ± 3% | Lipid Peroxidation ([5]; 25 μM): 2.5 ± 0.9 μmoles MDA/10^6 cells | Cell Death ([5]; 100 μM): 15 ± 3% | Lipid Peroxidation ([5]; 100 μM): 2.3 ± 0.1 μmoles MDA/10^6 cells | Cell Death ([5]; 250 μM): 20 ± 3% | Lipid Peroxidation ([5]; 250 μM): 1.7 ± 0.1 μmoles MDA/10^6 cells | cytoprotection at 3.5 mM extracellular Ca2+ ([5]; 3.5 mM Ca2+): eliminated

CC(C)CCC[C@@H](C)[C@H]1CC[C@H]2[C@@H]3CC[C@H]4C[C@@H](OS(=O)(=O)O)CC[C@]4(C)[C@H]3CC[C@]12C [Dihydrocholesterol sulfate, sodium salt]
ALT [6]: 1305±568 | ALT [7, 11]: 0.02 ± 0.01 10^3 units/L | AST [7, 11]: 0.17 ± 0.04 10^3 units/L | ALT [7, 12]: 0.03 ± 0.03 10^3 units/L | AST [7, 12]: 0.15 ± 0.07 10^3 units/L | inhibition in vivo at 100 mg/kg ([7]; Rattus norvegicus, ip, 48 h, read-out: % Hepatoprotection): 100% | protection against CCl4 hepatotoxicity (in words) ([7]; rats, serum enzyme levels): complete protection against hepatotoxicity

Cc1c(C)c2c(c(C)c1O)CC[C@@](C)(CCC[C@H](C)CCC[C@H](C)CCCC(C)C)O2 [alpha-T, d-alpha-tocopherol, reference compound]
Survival after CCl4 treatment ([1]; 100 mg/kg ip 24 h prior, […] CCl4 oral): No | Protection from CCl4 ([1]; 100 mg/kg ip (Table 5)): No | Days Survived After CCl4 Treatment ([1]; 100 mg/kg ip, 24 h prior, CCl4 2.2 g/kg): 3 days | Days Survived After CCl4 Treatment ([1]; 100 mg/kg ip, 24 h prior, CCl4 3.8 g/kg): 2 days | Days Survived After CCl4 Treatment ([1]; 100 mg/kg ip, 24 h prior, CCl4 5.0 g/kg): 2 days | Days Survived After CCl4 Treatment ([1]; 100 mg/kg ip, 24 h prior, CCl4 […]): 2 days | Days Survived After CCl4 Treatment [1, 10]: 3 days | Days Survived after CCl4 ([1]; CCl4 1.7 g/kg): three | Rate of ATP Depletion ([2]; 25 μM): 1.5 ± 0.2 nmoles/10^6 cell/hr | Cellular ATP ([2]; 25 μM, 0 Hr): 15.2 ± 1.6 nmoles/10^6 cells | Cellular ATP ([2]; 25 μM, 6 Hr): 6.3 ± 0.8 nmoles/10^6 cells | Liver Concentration Alpha-T [8]: 128 ± 10 nmol/g | inhibition at 25 µM [9]: 9% | Protection From Toxic Injury ([3]; 25 μM): No | Protection From Toxic Injury ([3]; 50 μM): No | Protection From Toxic Injury ([3]; 250 μM): No | inhibition at 25 µM ([3]; Rattus norvegicus, Hepatocyte, 5 h, read-out: Percent Cytoprotection): 8 ± 10% | inhibition at 25 µM ([3]; Rattus norvegicus, Hepatocyte, read-out: % Protection): 19% | protection of hepatocytes against EMS ([3]; up to 250 μM): Protection was not afforded | Hepatocyte Concentration Alpha-T ([4]; 25 μM): 2.1 ± 0.7 nmol/10^6 cells | Cellular alpha-T ([4]; 25 μM, Table 2): 2.6 nmoles/10^6 cells | Hepatocyte Concentration Alpha-T ([4]; 50 μM): 6.1 ± 0.7 nmol/10^6 cells | Hepatocyte Concentration Alpha-T ([4]; 250 μM): 23.7 ± 2.4 nmol/10^6 cells
